Data taken from EPA's ToxRefDB 2.

How the values were obtained:
rat [1] = conditions: Fertility (Segment I), sprague dawley, Oral, Gavage/Intubation, dose end: 7 GD, group: parental
rat [2] = conditions: Prenatal developmental toxicity study, sprague dawley, Oral, Gavage/Intubation, dose end: 17 GD
mouse [3] = conditions: Sub-acute repeat dose toxicity, cd1, Oral, Gavage/Intubation, dose end: 1 month, group: systemic
dog [4] = conditions: Subchronic oral toxicity in nonrodent, beagle, Capsule, dose end: 3 month, group: systemic, systemic / clinical chemistry / alanine aminotransferase (alt/sgpt) / alanine aminotransferase (alt/sgpt) + systemic / clinical chemistry / …
dog [5] = conditions: Sub-acute repeat dose toxicity, beagle, Oral, Capsule, dose end: 1 month, group: systemic
rat [6] = conditions: Sub-acute repeat dose toxicity, sprague dawley, Oral, Gavage/Intubation, dose end: 1 month
rat [7] = conditions: Fertility (Segment I), sprague dawley, Oral, Gavage/Intubation, dose end: 7 GD
rat [8] = conditions: Sub-acute repeat dose toxicity; sprague dawley; Oral; Gavage/Intubation; dose end: 1 month; group: systemic; systemic / hematology / blood clotting / blood clotting - prothrombin time + systemic / hematology / platelet / platelet + systemic / organ …
rat [9] = conditions: Prenatal developmental toxicity study, sprague dawley, Oral, Gavage/Intubation, dose end: 17 GD, group: maternal
rabbit = conditions: Prenatal developmental toxicity study, new zealand white, Oral, Gavage/Intubation, dose end: 19 GD
mouse [10] = conditions: Subchronic oral toxicity in rodents, cd1, Gavage/Intubation, dose end: 3 month, group: systemic
rat [11] = conditions: Chronic toxicity; sprague dawley; Oral; Gavage/Intubation; dose end: 6 month; group: systemic; systemic / clinical chemistry / chloride / chloride + systemic / clinical chemistry / sodium / sodium + systemic / hematology / hematocrit (…
[12] = systemic / in life observation / body weight / body weight gain + systemic / in life observation / food consumption / food consumption
[13] = systemic / in life observation / body weight / body weight gain + systemic / in life observation / food consumption / food consumption + …
[14] = systemic / in life observation / clinical signs / body surface staining
[15] = group: developmental, systemic / in life observation / body weight / fetal weight
[16] = group: maternal, reproductive / reproductive performance / preimplantation loss / preimplantation loss + systemic / in life observation / body weight / body …
[17] = group: maternal, systemic / in life observation / body weight / body weight gain + systemic / in life observation / clinical signs / piloerection + systemic…
[18] = systemic / in life observation / body weight / body weight gain + systemic / in life observation / clinical signs / drooping eyelids (ptosis…
[19] = systemic / in life observation / body weight / body weight gain + systemic / in life observation / clinical signs / piloerection + systemic…
[20] = systemic / clinical chemistry / alkaline phosphatase (alp/alk) / alkaline phosphatase (alp/alk) + systemic / clinical chemistry / …
[21] = systemic / clinical chemistry / lipids / phospholipids + systemic / pathology gross / liver / [other] + systemic / clinical chemistry / …
[22] = group: maternal, reproductive / reproductive performance / estrous cycle / abnormal
[23] = group: systemic, systemic / clinical chemistry / cholesterol / cholesterol + systemic / clinical chemistry / globulins / globulins + systemic / clinical …
[24] = group: systemic, systemic / urinalysis / specific gravity/osmolality / specific gravity/osmolality + systemic / urinalysis / volume / volume
[25] = group: maternal, reproductive / reproductive performance / implantations / implantations + reproductive / reproductive performance / preimplantation loss / …
[26] = group: parental, systemic / in life observation / body weight / body weight gain
[27] = group: parental, systemic / in life observation / body weight / body weight gain + systemic / in life observation / clinical signs / body surface staining + …
[28] = group: maternal, reproductive / reproductive performance / postimplantation loss / postimplantation loss + reproductive / reproductive performance / …
[29] = group: maternal, systemic / in life observation / clinical signs / defecation
[30] = systemic / clinical chemistry / cholesterol / cholesterol + systemic / clinical chemistry / bilirubin / total bilirubin + systemic / organ …
[31] = systemic / organ weight / liver / absolute + systemic / organ weight / liver / relative to body weight + systemic / organ weight / spleen / …

COc1ccc(S(=O)(=O)N2C(=O)[C@@](c3ccccc3OC)(N3C[C@H](O)C[C@H]3C(=O)N(C)C)c3cc(Cl)ccc32)c(OC)c1 [Nelivaptan]
LOAEL (rat [1]; [12]): 750 mg/kg/day
NOAEL (rat [1]; [13]): 450 mg/kg/day
LEL (rat [1]; [14]): 150 mg/kg/day
NEL (rat [1]; [14]): < 150 mg/kg/day
LEL (rat [2]; [15]): 750 mg/kg/day
LOAEL (rat [2]; [15]): 750 mg/kg/day
NEL (rat [2]; [15]): 300 mg/kg/day
NOAEL (rat [2]; [15]): 300 mg/kg/day
LOAEL (rat [2]; [16]): > 1500 mg/kg/day
NOAEL (rat [2]; [16]): ≥ 1500 mg/kg/day
LEL (rat [2]; [17]): 300 mg/kg/day
NEL (rat [2]; [17]): < 300 mg/kg/day
LOAEL (mouse [3]; [18]): > 4000 mg/kg/day
NOAEL (mouse [3]; [18]): ≥ 4000 mg/kg/day
LEL (mouse [3]; [19]): 1000 mg/kg/day
NEL (mouse [3]; [19]): < 1000 mg/kg/day
LEL (dog [4]): 100 mg/kg/day
LOAEL (dog [4]): 100 mg/kg/day
NEL (dog [4]): 25 mg/kg/day
NOAEL (dog [4]): 25 mg/kg/day
LOAEL (dog [5]; [20]): 200 mg/kg/day
NOAEL (dog [5]; [20]): 50 mg/kg/day
LEL (dog [5]; [21]): 50 mg/kg/day
NEL (dog [5]; [21]): < 50 mg/kg/day
LEL (rat [6]; [22]): 800 mg/kg/day
LOAEL (rat [6]; [22]): > 800 mg/kg/day
NEL (rat [6]; [22]): 200 mg/kg/day
NOAEL (rat [6]; [22]): ≥ 800 mg/kg/day
LOAEL (rat [6]; [23]): 200 mg/kg/day
NOAEL (rat [6]; [23]): 50 mg/kg/day
LEL (rat [6]; [24]): 50 mg/kg/day
NEL (rat [6]; [24]): < 50 mg/kg/day
LEL (rat [7]; [25]): 750 mg/kg/day
LOAEL (rat [7]; [25]): 750 mg/kg/day
NEL (rat [7]; [25]): 600 mg/kg/day
NOAEL (rat [7]; [25]): 600 mg/kg/day
LEL (rat [7]; [26]): 100 mg/kg/day
NEL (rat [7]; [26]): < 100 mg/kg/day
LOAEL (rat [7]; [27]): 750 mg/kg/day
NOAEL (rat [7]; [27]): 600 mg/kg/day
LEL (rat [8]): 25 mg/kg/day
LOAEL (rat [8]): > 200 mg/kg/day
NEL (rat [8]): < 25 mg/kg/day
NOAEL (rat [8]): ≥ 200 mg/kg/day
LEL (rat [9]; [12]): 150 mg/kg/day
NEL (rat [9]; [12]): < 150 mg/kg/day
LOAEL (rat [9]; [13]): > 750 mg/kg/day
NOAEL (rat [9]; [13]): ≥ 750 mg/kg/day
LEL (rabbit; [15]): 2000 mg/kg/day
LOAEL (rabbit; [15]): > 2000 mg/kg/day
NEL (rabbit; [15]): 1000 mg/kg/day
NOAEL (rabbit; [15]): ≥ 2000 mg/kg/day
LOAEL (rabbit; [28]): 1000 mg/kg/day
NOAEL (rabbit; [28]): 500 mg/kg/day
LEL (rabbit; [29]): 250 mg/kg/day
NEL (rabbit; [29]): < 250 mg/kg/day
LOAEL (mouse [10]; [30]): 1000 mg/kg/day
NOAEL (mouse [10]; [30]): 500 mg/kg/day
LEL (mouse [10]; [31]): 500 mg/kg/day
NEL (mouse [10]; [31]): < 500 mg/kg/day
LEL (rat [11]): 25 mg/kg/day
LOAEL (rat [11]): 25 mg/kg/day
NEL (rat [11]): < 25 mg/kg/day
NOAEL (rat [11]): < 25 mg/kg/day
